In US11786512B2, “Stable pharmaceutical compositions of dihydroergotamine mesylate” (Slayback Pharma LLC, priority 2019, dated 2023):
Structures can show the parent of a compound that is named as a salt. Where two headings read alike, the source gives them in different places.

Tests used:
migraine = settings: cited from earlier work
[1] = Rate of epimerization of DHE mesylate as a function of pH; type: physicochemical
From the text: Maintaining the pH above 5.0 in the compositions prepared according to the present invention results in a better stability profile when compared to DHE 45 maintained at a pH of 3.4-4.9.

Row | Compound | onset of therapeutic efficacy (migraine; intranasal) | onset of therapeutic efficacy (migraine; oral or sublingual delivery) | onset of action (migraine; parenteral administration) | rate of epimerization ([1]; pH of less than 4.0) | rate of epimerization ([1]; pH of more than 5.0)
1 | CN1C[C@H](C(=O)N[C@]2(C)O[C@@]3(O)[C@@H]4CCCN4C(=O)[C@H](Cc4ccccc4)N3C2=O)C[C@@H]2c3cccc4[nH]cc(c34)C[C@H]21 [DHE, Dihydroergotamine] | 45 min | 120 min | less than 30 minutes |  | 
2 | CN1C[C@H](C(=O)N[C@]2(C)O[C@@]3(O)[C@@H]4CCCN4C(=O)[C@H](Cc4ccccc4)N3C2=O)C[C@@H]2c3cccc4[nH]cc(c34)C[C@H]21 [DHE mesylate, Dihydroergotamine mesylate] |  |  |  | higher | significantly lesser
